Experimental data: PMC5485613, “A novel TRPM8 agonist relieves dry eye discomfort” (BMC Ophthalmology, 2017)

Assays:
human TRPM8 = target: T1, human TRPM8 (Homo sapiens, UniProt Q7Z2W7); experiment: TRPM8 calcium assay (Fluo-8, FLIPR) in transfected CHO cells; assay type: cell-based; conditions: x Menthol
T1 construct: host or cells: CHO cells, stably transfected
Experimental: Compounds were tested on Chinese Hamster Ovary (CHO) cells stably transfected with human TRPM8 cDNAs using a Fluo-8 calcium kit and a Fluorescence Imaging Plate Reader ([…]™) instrument. […] Solutions were prepared by diluting stock solutions in a HEPES-buffered physiological saline (HBPS) solution. Test compound and control formulations were loaded in polypropylene or glass-lined 384-well plates, and placed into the FLIPR instrument (Molecular Devices Corporation, Union City, CA, USA). Each was tested at 8 concentrations with n = 4 replicates per determination. […] For […]™ assay, cells were plated in 384-well black wall, flat clear-bottom microtiter plates (Type: BD Biocoat Poly-D-Lysine Multiwell Cell Culture Plate) at approximately 30,000 cells per well. Cells were incubated at 37 °C overnight to reach a near confluent monolayer appropriate for use in a fluorescence assay. The test procedure was to remove the growth media and to add 40 μL of HBPS containing Fluo-8 for 30 min at 37 °C. 10 μL of test compound, vehicle, or control solutions in HBPS were added to each well and read for 4 min. Concentration-response data were analyzed via the FLIPR Control software that is supplied with the FLIPR System (MDS-AT) and fitted to a Hill equation.

[1] = tested on: patients with dry eye disease; experiment: Four times daily application for 2 weeks in patients with dry eye disease (Expt 2); assay type: in vivo, human
Experimental: Initially, a total of 60 additional patients fulfilling the inclusion criteria were assessed for eligibility, and 54 subjects who decided to participate were randomized into two groups as described above (Additional file 1: Figure S4). Vehicle or C3 were prepared as 1 mL solutions placed into unit applicators called Swabdose™ made by Unicep Corporation, Sandpoint, ID. These applicators are singly encased in a polypropylene container with a 6.35 mm cotton tip attached to a 74.6 mm polystyrene handle. USP purified water (placebo units) or a C3 sample (2 mg/mL in USP purified water) was prepared onsite under clean conditions and packaged with automated equipment. Each subject was given 14 Swabdoses for the 2-week study period. The subjects were instructed to apply the cotton-tipped applicator to the edges of the closed eyelids once every 6 h per day for 14 days. The applicators were pre-weighed and the subjects were told to use to same applicator for each day and to save the applicator in a plastic bag at the end of the day. The applicators were collected, weighed and compared with the weight before application. TBUT, basal tear secretion, and corneal staining assessed by KEP scores were analyzed before and at 1 and 2 weeks thereafter. For TBUT, basal tear secretion, and KEP only the results from the right eye were scored for data analysis.
Three questionnaires were used at each patient visit to analyze the effects of treatment on ocular discomfort. Firstly, DED symptoms were assessed using a visual analogue scale (VAS) score of 1 to 10. Next, symptoms were assessed using the ocular surface disease index (OSDI) questionnaire, consisting of 12 questions graded on a scale from 0 to 4 (0 = “none of the time” and 4 = “all the time”). An overall score was calculated (0–100) by using the following equation: (25 × (sum of answered question scores/number of questions answered)). Participants were also asked to grade five symptoms associated with the CVS. The symptoms of fatigue, burning, dryness, blurred vision, and dullness of vision was ranked on a scale of 0 to 6 (0 = “no symptom”, 6 = “very severe symptom”) and the average aggregate score for the two test groups are reported.

mouse TRPV1 = target: T2, mouse TRPV1 (Mus musculus, UniProt Q704Y3); experiment: TRPV1 calcium imaging (Fura-2) in transfected KNRK cells; assay type: cell-based; conditions: 10 μM
T2 construct: expressed in transfected cells; host or cells: KNRK cells (rat kidney), transiently transfected
Experimental: To further examine the specificity of C3, tests were conducted on TRPV1 channels and TRPA1 channels expressed in Kirsten murine sarcoma virus transformed rat kidney (KNRK) cells. KNRK cells were cultured as a monolayer and maintained in Dulbeccos’s Modified Eagles’s Medium (Life Technologies), supplemented with 10% fetal bovine serum (Life Technologies), 100 units/mL penicillin and 100 μg/mL streptomycin, in an incubator of 5% CO2 at 37 °C. After suspension, the cells were coated on cover slips for 12 h, then transiently transfected with cDNA (pc3.1 DNA) for TRPV1 or TRPA1 with Lipofectamine 2000 (Invitrogen) for 24 h, and loaded with Fura-2 AM™ (Molecular Probes) for 40 min at 37 °C. After washing and recovery, KNRK cells were imaged at 340 and 380 nm excitation to detect free calcium influx. An increase of 50% of the 340/380 ratio was considered as the response threshold which were measured under masked conditions for plasmids. Compounds were applied to the bath and calcium response was acquired by an inverted Nikon fluorescence microscope with a CoolSnap HQ2 CCD camera (Photometrics, Tucson, AZ). Data were quantified offline with the Nikon-NIS program.

rats = experiment: Shaking activity (wet dog shakes) after intravenous, perioral and topical administration; assay type: in vivo, rat
Experimental: Male rats weighing 220–260 g were anesthetized with sodium pentobarbital, 55 mg/kg intraperitoneal, and after the loss of the righting reflex, animals were placed on a table and body temperature was recorded. The femoral vein was cannulated with polyethylene-20 tubing connected to a 1 mL syringe. For the intravenous and perioral routes, 0.1 mL of solution was given per 100 g body weight at a dose of 2 mg/kg or 20 mg/kg, respectively. For topical administration, the abdominal skin was shaved and 20 μL of the pure Dapa was applied with a micropipette on a ~ 1 cm diameter circle of skin, enclosed with a ring of cream (Baby cream “NevskayakosmetikaDetskyi” NevskayaKosmetika Inc., Saint-Petersburg 192,029). Animals were observed and shaking frequency counted for 15, 40 min and 1 h after intravenous, perioral, and topical applications, respectively. There were n = 3 to 6 rats per test substance. For the intravenous route, two trials were conducted in the same animal with a 10 to 15 min interval between doses. The shaking frequency shown in the graphs is for the second trial. Shaking behavior are rapid alternating contractions of the supination and pronation muscles about the spinal axis, and can be readily observed in the readily observed in the unanesthetized or anesthetized state and counted (Additional file 2: Movie S1). The pattern of response after intravenous, perioral, and topical delivery provides information on the ability of the molecule to cross membrane barriers. Experiments on rats were ended by euthanasia with intraperitoneal injection of sodium pentobarbital 150 mg/kg.
Supplementary file 12886_2017_495_MOESM2_ESM.mp4: Additional file 2: Movie S1. Shaking response to a 1-diisopropylphosphorylnonane. Video recording 20 to 40 min period after oral dosing with C3 at 50 mg/kg. C3 was dissolved in 5% ethanol-95% R-1,2-propanediol. The total observation period was 120 min. […] (MP4 3699 kb)

[2] = 2 mg/mL four times a day, versus vehicle
[3] = 2 mg/mL four times a day, week 1 or week 2, n = 20

T2 sequence (Q704Y3 whole entry): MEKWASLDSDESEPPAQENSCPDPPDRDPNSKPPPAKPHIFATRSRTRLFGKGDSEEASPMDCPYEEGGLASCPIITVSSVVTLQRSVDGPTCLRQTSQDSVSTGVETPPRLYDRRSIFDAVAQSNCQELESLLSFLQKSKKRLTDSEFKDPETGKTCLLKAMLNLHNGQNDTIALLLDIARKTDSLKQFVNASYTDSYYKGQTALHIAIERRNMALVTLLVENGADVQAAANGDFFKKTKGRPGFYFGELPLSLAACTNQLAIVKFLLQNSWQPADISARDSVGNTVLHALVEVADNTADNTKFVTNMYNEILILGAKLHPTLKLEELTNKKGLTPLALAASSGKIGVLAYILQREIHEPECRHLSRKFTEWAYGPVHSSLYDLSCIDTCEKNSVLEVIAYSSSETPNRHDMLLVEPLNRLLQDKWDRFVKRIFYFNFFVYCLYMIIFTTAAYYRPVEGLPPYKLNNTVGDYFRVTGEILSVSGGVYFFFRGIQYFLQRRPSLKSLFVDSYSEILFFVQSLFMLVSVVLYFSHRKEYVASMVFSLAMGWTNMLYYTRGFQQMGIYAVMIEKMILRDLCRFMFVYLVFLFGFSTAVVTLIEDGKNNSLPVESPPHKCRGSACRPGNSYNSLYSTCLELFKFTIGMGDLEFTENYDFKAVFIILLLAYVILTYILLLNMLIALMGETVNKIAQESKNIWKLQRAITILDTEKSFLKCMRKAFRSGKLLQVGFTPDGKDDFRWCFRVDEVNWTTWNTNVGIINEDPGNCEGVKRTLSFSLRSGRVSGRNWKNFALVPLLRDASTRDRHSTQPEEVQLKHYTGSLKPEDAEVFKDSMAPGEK
T1 sequence (Q7Z2W7 whole entry): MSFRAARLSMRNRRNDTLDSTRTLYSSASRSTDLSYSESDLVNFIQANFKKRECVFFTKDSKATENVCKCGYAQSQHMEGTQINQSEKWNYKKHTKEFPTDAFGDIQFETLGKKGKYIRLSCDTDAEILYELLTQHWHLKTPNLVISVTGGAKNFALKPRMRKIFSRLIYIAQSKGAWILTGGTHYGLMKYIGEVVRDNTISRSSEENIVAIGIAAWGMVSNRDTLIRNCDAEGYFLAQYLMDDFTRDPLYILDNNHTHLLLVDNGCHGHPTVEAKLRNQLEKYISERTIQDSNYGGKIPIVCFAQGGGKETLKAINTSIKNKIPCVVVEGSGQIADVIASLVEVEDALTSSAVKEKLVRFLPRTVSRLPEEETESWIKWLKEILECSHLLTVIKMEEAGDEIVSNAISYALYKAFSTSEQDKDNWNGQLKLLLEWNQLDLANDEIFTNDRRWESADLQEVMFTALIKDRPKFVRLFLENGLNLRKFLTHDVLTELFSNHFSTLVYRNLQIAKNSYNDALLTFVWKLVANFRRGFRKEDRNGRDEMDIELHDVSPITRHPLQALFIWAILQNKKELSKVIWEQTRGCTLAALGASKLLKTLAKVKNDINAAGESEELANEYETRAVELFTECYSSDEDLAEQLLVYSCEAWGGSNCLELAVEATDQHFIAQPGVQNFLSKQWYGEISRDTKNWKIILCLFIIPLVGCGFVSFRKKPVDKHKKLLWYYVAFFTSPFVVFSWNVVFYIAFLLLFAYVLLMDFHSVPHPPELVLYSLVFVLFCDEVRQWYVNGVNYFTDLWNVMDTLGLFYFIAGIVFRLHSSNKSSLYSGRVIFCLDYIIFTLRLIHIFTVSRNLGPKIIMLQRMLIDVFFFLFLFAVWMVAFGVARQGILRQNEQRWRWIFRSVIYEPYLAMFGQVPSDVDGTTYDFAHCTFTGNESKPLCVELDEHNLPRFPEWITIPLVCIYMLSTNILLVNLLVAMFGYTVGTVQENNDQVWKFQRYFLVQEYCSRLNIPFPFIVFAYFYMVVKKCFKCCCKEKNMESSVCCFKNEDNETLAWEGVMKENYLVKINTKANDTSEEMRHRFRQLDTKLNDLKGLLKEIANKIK

**Q.** Which “relative potency to l-menthol (menthol = 1)” value (human TRPM8) does the source give for CCCCCCCCCP(=O)(C(C)C)C(C)C [C3, 1-diisopropylphosphorylnonane] here?
**A.** 4.0

**Q.** What about the “CVS type of symptoms” value ([1]; 2 mg/mL four times a day, 1 and 2 weeks) of the same compound?
**A.** significantly improved

**Q.** What about the basal tear secretion ([1]; 2 mg/mL four times a day, 1 and 2 weeks, versus baseline and vehicle) of the same compound?
**A.** significantly increased

**Q.** And the “severity of symptoms by VAS score” value [1, 2]?
**A.** significantly improved at week 2 but not at week 1

**Q.** What about the “total OSDI score” value [1, 2] of the same compound?
**A.** significantly improved at week 2 but not at week 1

**Q.** What about the KEP [1, 3] of the same compound?
**A.** no significant changes

**Q.** And the TBUT [1, 3]?
**A.** no significant changes

**Q.** What about the “adverse effect (ocular pain, irritation, discomfort)” value ([1]; 2 weeks study) of the same compound?
**A.** No significant adverse effect

**Q.** And the “activation of TRPV1 (calcium response)” value (mouse TRPV1)?
**A.** inactive

**Q.** What about the “Shaking [15 min]” value (rats; intravenous 2 mg/kg, anesthetized rats) of the same compound?
**A.** active

**Q.** What about the “body shakes after oral dosing” value (rats; oral 20 mg/kg, anesthetized and unanesthetized state) of the same compound?
**A.** no body shakes

**Q.** What about the “total number of shaking in the most active rat” value (rats; oral 50 mg/kg in 5% ethanol-95% R-1,2-propanediol, observation 120 min) of the same compound?
**A.** 56 shakes

**Q.** And the “Shaking [40 min]” value (rats; perioral 20 mg/kg, pentobarbital-anesthetized rats)?
**A.** not active
